The numbers were not newly measured in US9943555B2, “Bacteria engineered to reduce hyperphenylalaninemia” (Synlogic, Inc., priority 2015, dated 2018), which cites them from elsewhere.

In the data set the test system is patients / subjects with phenylketonuria.

Consider `C[C@H](O)[C@H](O)[C@H]1CNc2nc(N)[nH]c(=O)c2N1` [Kuvan, tetrahydrobiopterin], for which the side effects result was “gastritis and severe allergic reactions”.
